Assay results taken from the CombiSolv-Exp solvation set (Vermeire and Green 2021).

Test: solvent given as SMILES

CC(C)CCC(C)C
Conditions | solvation free energy, 298 K [kcal/mol]
in Brc1ccccc1 | -4.53
in C1CCCCC1 | -5.02
in C1CCOC1 | -4.85
in C1COCCO1 | -4.04
in C=CCCCC | -4.95
in C=CCCCCCC | -4.85
in C=CCCCCCCCC | -4.75
in CC1COC(=O)O1 | -2.64
in CC#N | -3.31
in CC(=O)N(C)C | -3.54
in CC(=O)O | -3.59
in CC(=O)c1ccccc1 | -3.84
in CC(C)=O | -4.03
in CC(C)CC(C)(C)C | -4.84
in CC(C)CCCC(C)CCCC(C)CCCCC(C)CCCC(C)CCCC(C)C | -4.35
in CC(C)CCO | -4.21
in CC(C)O | -3.99
in CC(C)OC(C)C | -4.85
in CCBr | -4.97
in CCC#N | -3.76
in CCC(C)=O | -4.29
in CCCC#N | -4
in CCCC(=O)OCC | -4.52
in CCCC(C)=O | -4.38
in CCCCC | -5.01
in CCCCCC | -4.97
in CCCCCC(C)=O | -4.4
in CCCCCCC | -4.9
in CCCCCCCC | -4.83
in CCCCCCCCC | -4.79
in CCCCCCCCCC | -4.74
in CCCCCCCCCCCC | -4.63
in CCCCCCCCCCCCCCCC | -4.53
in CCCCCCCCO | -4.21
in CCCCCCOC(C)=O | -4.48
in CCCCO | -4.1
in CCCCOC(C)=O | -4.46
in CCCCOCCCC | -4.81
in CCCO | -4.07
in CCN(CC)CC | -4.89
in CCO | -3.92
in CCOC(C)=O | -4.31
in CCOCC | -4.91
in CCOCCOCCOCC | -4.23
in CCOc1ccccc1 | -4.31
in CN1CCCC1=O | -3.42
in CN(C)C=O | -3.35
in CN(C)P(=O)(N(C)C)N(C)C | -3.84
in CNC=O | -2.97
in CO | -3.55
in COC(C)=O | -4.11
in COCCO | -3.43
in COc1ccccc1 | -4.22
in CS(C)=O | -2.41
in Cc1ccc(C)cc1 | -4.77
in Cc1ccccc1 | -4.76
in Cc1ccccn1 | -4.33
in ClC(Cl)(Cl)Cl | -5.01
in ClC(Cl)Cl | -4.88
in ClCCCl | -4.29
in ClCCl | -4.64
in Clc1ccccc1 | -4.75
in FC(F)(F)C(F)(F)C(F)(F)C(F)(F)C(F)(F)C(F)(F)C(F)(F)C(F)(F)F | -3.22
in FC(F)(F)C(F)(F)C(F)(F)C(F)(F)C(F)(F)C(F)(F)F | -3.3
in Fc1ccccc1 | -4.66
in ICI | -2.71
in N#Cc1ccccc1 | -3.85
in Nc1ccccc1 | -3.11
in O | 2.78
in O=C1CCCCC1 | -4.2
in O=C1CCCO1 | -2.85
in OCc1ccccc1 | -3.33
in S=C=S | -4.94
in c1ccccc1 | -4.76
in c1ccncc1 | -4.06

Cc1cccc(O)c1C
Conditions | solvation free energy, 298 K [kcal/mol]
in CC(C)CC(C)(C)C | -6.27
in CCCCCC | -6.67
in O | -6.12

C=CC=CCC
Conditions | solvation free energy, 298 K [kcal/mol]
in C=CCCCCCCCCCCCCCC | -3.64
in CN1CCCC1=O | -3.67
in O | 0.75

COc1c(O)c(OC)c(Cl)c(C=O)c1Cl
Conditions | solvation free energy, 298 K [kcal/mol]
in O | -8.68

C=CC=CC
Conditions | solvation free energy, 298 K [kcal/mol]
in N#Cc1ccccc1 | -3.26

Nc1ccc(S(=O)(=O)Nc2ccccn2)cc1
Conditions | solvation free energy, 298 K [kcal/mol]
in O | -18.7

CCCCCCNCc1ccc(C)cc1
Conditions | solvation free energy, 298 K [kcal/mol]
in O | -4.97

CCCCC(=O)CC(C)=O
Conditions | solvation free energy, 298 K [kcal/mol]
in O | -4.28

CN(C)C=O
Conditions | solvation free energy, 298 K [kcal/mol]
in C1CCOC1 | -5.99
in C1COCCO1 | -6.17
in CC(C)=O | -6.43
in CCC(C)=O | -6.41
in CCCCCCCCCCCCCCCC | -3.88
in CCCCCCCCO | -5.95
in CCOC(C)=O | -6.1
in ClC(Cl)(Cl)Cl | -4.73
in O | -7.77
in [2H]O[2H] | -7.47
in c1ccccc1 | -6.19

CSC
Conditions | solvation free energy, 298 K [kcal/mol]
in C=C(C)CC(C)(C)C | -3.04
in C=CCCCC | -3.07
in CC(C)CC(C)(C)C | -2.9
in CCCCCC | -2.97
in ClC(Cl)(Cl)Cl | -3.6
in ClC(Cl)Cl | -4.08
in O | -1.5

Clc1ccc(Cl)c(Cl)c1
Conditions | solvation free energy, 298 K [kcal/mol]
in CCCCCC | -6.98
in O | -1.16

CC(C)(C)c1ccc(O)cc1
Conditions | solvation free energy, 298 K [kcal/mol]
in CCCCCC | -7.63
in O | -5.91

CCCCCCCCCC(=O)c1c(C)[nH]n(-c2ccccc2)c1=O
Conditions | solvation free energy, 298 K [kcal/mol]
in O | -8.46

FC(F)(Cl)Cl
Conditions | solvation free energy, 298 K [kcal/mol]
in CCCCCCC | -1.8
in CCCCCCCC | -1.76
in CCCCCCCC(=O)OCC(COC(=O)CCCCCCC)OC(=O)CCCCCCC | -1.36
in CCCCCCCCC | -1.68
in CCCCCCCCO | -1.34
in ClC(Cl)(Cl)Cl | -1.92

CCCCCOC(C)=O
Conditions | solvation free energy, 298 K [kcal/mol]
in CCCCCC | -5.57
in CCCCCCC | -5.48
in CCCCCCCC | -5.42
in CCCCCCCCCC | -5.37
in CCCCCCCCCCCCCCCC | -5.24
in CCCCCCCCO | -5.61
in NC=O | -4.32
in O | -2.48
in [2H]O[2H] | -2.55
